No end group written: not given here.
Legend:
GLP-1 receptor (mouse) = GLP-1 receptor (mouse) (UniProt O35659)
dipeptidyl peptidase IV = test: DPP-IV assay (Example 5), HPLC/ES-MS; format: in vitro ADME; conditions: 11 milliunits DPP-IV, 50 mM triethanolamine buffer pH 7.8, 37° C., HPLC and ES-MS
Protocol: J. Bailey, F. P. M. O'Harte, and P. R. Flatt. […] Biological Chemistry. 385, pp 169-177.
Briefly, 100-200 microgams of each peptide was dissolved in 0.5 ml of 50 mM triethanolamine buffer, pH 7.8. To this was added a 10 microlitre solution of 11 milliunits DPP-IV (Sigma) and the solutions incubated at 37° C. for up to 42 hours. […] The incubations were terminated by addition of 5 microlitres TFA to each tube and 50 microlitre of each were injected onto a reversed phase 4.6×250 mm C18 HPLC column, eluting a gradient of 20%-45% acetonitrile in 0.1% TFA/water over 25 minutes. […] After 42 hours, the 2 analogues slowly degraded to a product that gave a mass spectrum consistent with the mass of the 9-37 sequence, indicating longer term instability of the urea bond. This represented as much as 15% of the product by HPLC. This degradation appeared to be non-DPP-IV related, since samples without enzyme gave the same profile.

DPP-IV = DPP-IV (Homo sapiens, UniProt P27487); test: Dipeptidyl Peptidase IV (DPP-IV) digestion, stability by RP-HPLC (Example 10); format: in vitro ADME; conditions: DPP-IV (isolated peptidase), PBS/TEthA, pH 7.5, 37°, DPP-IV, read-out: percentage of analogue remaining
Chain of DPP-IV (P27487 whole entry, species assumed): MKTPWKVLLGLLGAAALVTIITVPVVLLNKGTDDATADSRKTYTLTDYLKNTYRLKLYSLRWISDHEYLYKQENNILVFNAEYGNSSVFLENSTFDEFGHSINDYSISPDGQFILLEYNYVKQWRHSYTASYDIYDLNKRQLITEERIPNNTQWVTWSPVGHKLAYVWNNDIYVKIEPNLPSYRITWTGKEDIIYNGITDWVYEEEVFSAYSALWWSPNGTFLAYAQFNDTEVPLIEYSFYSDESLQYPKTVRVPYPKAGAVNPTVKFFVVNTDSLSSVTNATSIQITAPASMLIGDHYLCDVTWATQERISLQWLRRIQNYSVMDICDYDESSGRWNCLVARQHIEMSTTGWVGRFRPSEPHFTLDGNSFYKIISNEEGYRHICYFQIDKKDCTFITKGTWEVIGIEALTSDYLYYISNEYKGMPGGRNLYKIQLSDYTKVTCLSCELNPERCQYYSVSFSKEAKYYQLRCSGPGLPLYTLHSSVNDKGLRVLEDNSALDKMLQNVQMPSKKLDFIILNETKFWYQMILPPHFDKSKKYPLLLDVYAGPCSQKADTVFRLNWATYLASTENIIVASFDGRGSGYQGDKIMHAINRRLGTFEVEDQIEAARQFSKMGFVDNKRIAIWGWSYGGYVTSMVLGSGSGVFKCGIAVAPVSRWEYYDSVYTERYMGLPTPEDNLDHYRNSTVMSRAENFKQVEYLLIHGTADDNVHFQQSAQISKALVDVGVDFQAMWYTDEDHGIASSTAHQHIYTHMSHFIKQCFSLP
Text: Their stabilities were monitored by RP-HPLC, noting the disappearance of the intact sequence and appearance of a species missing the N terminal dipeptide or similar fragment.

[1] = Control study: chemical stability in PBS/triethanolamine without DPP-IV; format: physicochemical; conditions: PBS/TEthA, pH 7.5, 37°, no DPP-IV; for remaining at 22 h / remaining at 47 h: PBS/triethanolamine solution without DPP-IV, read-out: percentage of peptide remaining
Protocol: In the control study, peptides were incubated with PBS/triethanolamine solution in the absence of DPP-IV to measure their chemical stability.

beta TC-6 cell line = test: Insulin release assay (insulin ELISA); format: cell-based, mouse; conditions: for Insulin release: 5 mM glucose, 30 minutes, Beta-TC-6 cells, cells only 1.37-3.67; for Activity of 3 μM of each peptide as percentage of insulin release by cells only / Activity of 15 μM of each peptide as percentage of insulin release by cells only: cells alone=100%
Protocol: This was derived from a pancreatic tumor (insulinoma) arising in a transgenic mouse.
Beta-TC-6 cells were purchased from A.T.C.C. (A.T.C.C. number CCL-11506; Manassas, Va., U.S.A.). Beta-TC-6 cells were cultured in Dulbecco's Modified Eagle's medium supplemented with 15% (v/v) heat-inactivated foetal bovine serum, 1% (v/v) glutamine, 0.45% (w/v) glucose and 0.15% (w/v) sodium bicarbonate at 37° C. in a humidified 5% CO2 atmosphere. Beta-TC-6 cells form islands and the monolayer never becomes confluent; cells were passaged at 70% confluence (7 days from seeding) at a subcultivation ratio of 1:4. The monolayer was disrupted from the surface of the culture flask with 0.25% (w/v) Trypsin-0.53 mM EDTA.
Beta-TC-6 cells were cultured in 12 well plates for between 4-8 days prior to use. Cells were cultured in Krebs-Ringer (10 mM Hepes, pH 7.4, 136 mM NaCl, 4.7 mM KCl and 1.25 mM MgSO4) supplemented with 5 mM glucose for 1 hr at 37° C. in a humidified 5% CO2 atmosphere. This medium was removed, cells washed with Krebs-Ringer. Beta-TC-6 cells were then cultured in 1 ml per well of Krebs-Ringer supplemented with 5 mM glucose and 0, 0.12, 0.6, 3 and 15 μM of peptide in duplicate for 30 minutes at 37° C. in a humidified 5% CO2 atmosphere. Medium was removed, diluted 1:5, and insulin concentration determined using an insulin ELISA kit (Mercodia, Uppsala, Sweden) according to the manufacturer's protocol. Beta-TC-6 cells were washed three times with ice-cold PBS and extracted into 0.5 ml lysis buffer (62.5 mM Tris, pH 7.5, and 1%, v/v, SDS) per well. Protein concentration was determined by Lowry assay. […] Only single-sided p values are shown.

[2] = biological target: L-His-L-Ala-NH-NH-CH2-C(O)-Glu9-37 (SP007) (Homo sapiens)
[3] = biological target: L-His-L-NH-CH(CH3)-CH2-NH-O-CH2-C(O)-Glu9-37 (SP005) (Homo sapiens)
[4] = biological target: L-His-NH-NH-CH(CH3)-C(O)-Glu9-37 (SP008) (Homo sapiens)
[5] = biological target: L-His-NH-NH-CH2-C(O)-Glu9-37 (SP006) (Homo sapiens)
[6] = biological target: Native GLP-1 7-37 (Homo sapiens)

In the case of “L-His-NH-NH-CH(CH3)-C(O)-Glu9-37 (SP008) (peptide)”, the Activity of 15 µM of each peptide as percentage of insulin release by cells only (beta TC-6 cells) (% of insulin release by cells only) (GLP-1 receptor (mouse)) is reported as 170.

For “GLP-1 NH2-L-His-L-Ala-urea-9-37 (SP001) (peptide)”, the Activity of 15 µM of each peptide as percentage of insulin release by cells only (beta TC-6 cells) (% of insulin release by cells only) (GLP-1 receptor (mouse)) was 100.

Work on “L-His-NH-NH-CH2-C(O)-Glu9-37 (SP006) (peptide)” yielded an Activity of 15 µM of each peptide as percentage of insulin release by cells only (beta TC-6 cells) (% of insulin release by cells only) (GLP-1 receptor (mouse)) of 330.

With HAEGTFTSDVSSYLEG [GLP-1 7-22] the “state of peptide after 18 hr incubation with DPP-IV” value (dipeptidyl peptidase IV) was “completely cleaved”.

Work on `CC[C@H](C)[C@H](NC(=O)[C@H](Cc1ccccc1)NC(=O)[C@H](CCC(=O)O)NC(=O)[C@H](CCCCN)NC(=O)[C@H](C)NC(=O)[C@H](C)NC(=O)[C@H](CCC(N)=O)NC(=O)CNC(=O)[C@H](CCC(=O)O)NC(=O)[C@H](CC(C)C)NC(=O)[C@H](Cc1ccc(O)cc1)NC(=O)[C@H](CO)NC(=O)[C@H](CO)NC(=O)[C@@H](NC(=O)[C@H](CC(=O)O)NC(=O)[C@H](CO)NC(=O)[C@@H](NC(=O)[C@H](Cc1ccccc1)NC(=O)[C@@H](NC(=O)CNC(=O)[C@H](CCC(=O)O)NC(=O)[C@H](C)NNC(=O)[C@@H](N)Cc1c[nH]cn1)[C@@H](C)O)[C@@H](C)O)C(C)C)C(=O)N[C@@H](C)C(=O)N[C@@H](Cc1c[nH]c2ccccc12)C(=O)N[C@@H](CC(C)C)C(=O)N[C@H](C(=O)N[C@@H](CCCCN)C(=O)NCC(=O)N[C@@H](CCCNC(=N)N)C(=O)NCC(=O)O)C(C)C` [SP008, L-His-NH—NH—CH(CH3)—C(O)-Glu9-37] yielded a remaining at 22 h (DPP-IV) of 95%, a remaining at 47 h (DPP-IV) of 93% and a remaining at 22 h [1] of 91%. For the same molecule, the remaining at 47 h ([1]; 47 hr) was 77%, the Insulin release (beta TC-6 cell line; 3 μM peptide) was 4.35 ng/min/mg and the “Activity of 3 μM of each peptide as percentage of insulin release by cells only” value (beta TC-6 cell line; 3 μM peptide) was 112 ± 44%. For the same molecule, the Insulin release (beta TC-6 cell line; 15 μM peptide) was 6.20 ng/min/mg and the “Activity of 15 μM of each peptide as percentage of insulin release by cells only” value (beta TC-6 cell line; 15 μM peptide) was 170 ± 48%.

Molecule “GLP-1 NH2-D-His-D-Ala-Urea-9-37 (SP002) (peptide)” has an Activity of 15 µM of each peptide as percentage of insulin release by cells only (beta TC-6 cells) (% of insulin release by cells only) (GLP-1 receptor (mouse)) of 254.

Work on “dipeptidyl peptidase IV (DPP-IV) (Sigma) (enzyme)” yielded a percentage of each analogue remaining after incubation with DPP-IV (RP-HPLC), 22 hr [2] of less than 5 % remaining, a percentage of each analogue remaining after incubation with DPP-IV (RP-HPLC), 47 hr [3] of 93 % remaining and a percentage of each analogue remaining after incubation with DPP-IV (RP-HPLC), 47 hr [4] of 93 % remaining. The percentage of each analogue remaining after incubation with DPP-IV (RP-HPLC), 47 hr [5] was 87 % remaining and the percentage of each analogue remaining after incubation with DPP-IV (RP-HPLC), 22 hr [6] was less than 5 % remaining.

Work on `CC[C@H](C)[C@H](NC(=O)[C@H](Cc1ccccc1)NC(=O)[C@H](CCC(=O)O)NC(=O)[C@H](CCCCN)NC(=O)[C@H](C)NC(=O)[C@H](C)NC(=O)[C@H](CCC(N)=O)NC(=O)CNC(=O)[C@H](CCC(=O)O)NC(=O)[C@H](CC(C)C)NC(=O)[C@H](Cc1ccc(O)cc1)NC(=O)[C@H](CO)NC(=O)[C@H](CO)NC(=O)[C@@H](NC(=O)[C@H](CC(=O)O)NC(=O)[C@H](CO)NC(=O)[C@@H](NC(=O)[C@H](Cc1ccccc1)NC(=O)[C@@H](NC(=O)CNC(=O)[C@H](CCC(=O)O)NC(=O)CONC[C@H](C)NC(=O)[C@@H](N)Cc1c[nH]cn1)[C@@H](C)O)[C@@H](C)O)C(C)C)C(=O)N[C@@H](C)C(=O)N[C@@H](Cc1c[nH]c2ccccc12)C(=O)N[C@@H](CC(C)C)C(=O)N[C@H](C(=O)N[C@@H](CCCCN)C(=O)NCC(=O)N[C@@H](CCCNC(=N)N)C(=O)NCC(=O)O)C(C)C` [SP005, L-His-L-NH—CH(CH3)—CH2—NH—O—CH2—C(O)-Glu9-37] yielded a remaining at 22 h (DPP-IV) of 95%, a remaining at 47 h (DPP-IV) of 93% and a remaining at 22 h [1] of 95%. For the same molecule, the remaining at 47 h ([1]; 47 hr) was 89%, the Insulin release (beta TC-6 cell line; 3 μM peptide) was 2.25 ng/min/mg and the “Activity of 3 μM of each peptide as percentage of insulin release by cells only” value (beta TC-6 cell line; 3 μM peptide) was 171 ± 53%. For the same molecule, the Insulin release (beta TC-6 cell line; 15 μM peptide) was 5.26 ng/min/mg and the “Activity of 15 μM of each peptide as percentage of insulin release by cells only” value (beta TC-6 cell line; 15 μM peptide) was 358 ± 128%.

For “L-His-L-Ala-NH-NH-CH2-C(O)-Glu9-37 (SP007) (peptide)”, the Activity of 15 µM of each peptide as percentage of insulin release by cells only (beta TC-6 cells) (% of insulin release by cells only) (GLP-1 receptor (mouse)) was 235.

In the case of “L-His-L-NH-CH(CH3)-CH2-NH-O-CH2-C(O)-Glu9-37 (SP005) (peptide)”, the Activity of 15 µM of each peptide as percentage of insulin release by cells only (beta TC-6 cells) (% of insulin release by cells only) (GLP-1 receptor (mouse)) is reported as 358.

In the case of “Glu Gly Thr Phe Thr Ser Asp Val Ser Ser Tyr Leu Glu Gly Gln Ala Ala Lys Glu Phe Ile Ala Trp Leu Val Lys Gly Arg Gly (EGTFTSDVSSYLEGQAAKEFIAWLVKGRG; listed as Homo sapiens) [Native GLP-1 9-37, reference compound]”, the Insulin release (beta TC-6 cell line; 15 μM peptide) is reported as 3.25 ng/min/mg and the “Activity of 15 μM of each peptide as percentage of insulin release by cells only” value (beta TC-6 cell line; 15 μM peptide) is reported as 123 ± 17%.

In the case of `CC[C@H](C)[C@H](NC(=O)[C@H](Cc1ccccc1)NC(=O)[C@H](CCC(=O)O)NC(=O)[C@H](CCCCN)NC(=O)[C@H](C)NC(=O)[C@H](C)NC(=O)[C@H](CCC(N)=O)NC(=O)CNC(=O)[C@H](CCC(=O)O)NC(=O)[C@H](CC(C)C)NC(=O)[C@H](Cc1ccc(O)cc1)NC(=O)[C@H](CO)NC(=O)[C@H](CO)NC(=O)[C@@H](NC(=O)[C@H](CC(=O)O)NC(=O)[C@H](CO)NC(=O)[C@@H](NC(=O)[C@H](Cc1ccccc1)NC(=O)[C@@H](NC(=O)CNC(=O)[C@H](CCC(=O)O)NC(=O)CNNC(=O)[C@@H](N)Cc1c[nH]cn1)[C@@H](C)O)[C@@H](C)O)C(C)C)C(=O)N[C@@H](C)C(=O)N[C@@H](Cc1c[nH]c2ccccc12)C(=O)N[C@@H](CC(C)C)C(=O)N[C@H](C(=O)N[C@@H](CCCCN)C(=O)NCC(=O)N[C@@H](CCCNC(=N)N)C(=O)NCC(=O)O)C(C)C` [SP006, L-His-NH-NH-CH2-C(O)-Glu9-37], the remaining at 22 h (DPP-IV) is reported as 88%, the remaining at 47 h (DPP-IV) is reported as 87% and the “percentage of peptide remaining” value ([1]; 47 hr) is reported as 88%. The remaining at 22 h [1] was 88%, the Insulin release (beta TC-6 cell line; 3 μM peptide) was 3.86 ng/min/mg and the “Activity of 3 μM of each peptide as percentage of insulin release by cells only” value (beta TC-6 cell line; 3 μM peptide) was 154 ± 25%. The Insulin release (beta TC-6 cell line; 15 μM peptide) was 8.88 ng/min/mg and the “Activity of 15 μM of each peptide as percentage of insulin release by cells only” value (beta TC-6 cell line; 15 μM peptide) was 330 ± 89%.
